For assay [1], the target named is human dopamine D2L receptor (Homo sapiens, UniProt P14416). Nature of the assay: Dopamine D2L radioligand binding ([3H]Spiperone). The settings on record: compound at 1 μM. The source says:
Non-specific binding was estimated in the presence of […] Haloperidol. Receptor proteins were filtered and washed, the filters were then counted to determine [^3H]Spiperone specifically bound. […] Biochemical assay results are presented as the percent inhibition of specific binding in Table 9.

The target of a further assay is histamine receptor H1 (Homo sapiens, UniProt P35367). Nature of the assay: Histamine H1 radioligand binding ([3H]Pyrilamine). The settings on record: read-out: Histamine Binding (1 μM) H1, percent inhibition of specific binding, 1 μM. The procedure, abridged:
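Values are percent inhibition of specific [3H]pyrilamine (1.2 nM) binding with compounds at ≤1 μM (1% DMSO vehicle); 180 min incubation at 25 °C, pH 7.4 Tris buffer, on CHO-expressed human H1 receptor; 1 μM pyrilamine defined nonspecific binding, bound ligand counted after filtration.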

[2] abbreviates: […] [3H]Spiperone, read-out: Inhibition of ligand binding, Dopamine D2L (percent inhibition of specific binding).
The mark [3] stands for this setting: percent inhibition of specific binding, read-out: Inhibition of ligand binding, Dopamine D2L.

Structures are written as SMILES. Where two headings read alike, the source gives them in different places.

Chain of histamine receptor H1 (P35367 whole entry): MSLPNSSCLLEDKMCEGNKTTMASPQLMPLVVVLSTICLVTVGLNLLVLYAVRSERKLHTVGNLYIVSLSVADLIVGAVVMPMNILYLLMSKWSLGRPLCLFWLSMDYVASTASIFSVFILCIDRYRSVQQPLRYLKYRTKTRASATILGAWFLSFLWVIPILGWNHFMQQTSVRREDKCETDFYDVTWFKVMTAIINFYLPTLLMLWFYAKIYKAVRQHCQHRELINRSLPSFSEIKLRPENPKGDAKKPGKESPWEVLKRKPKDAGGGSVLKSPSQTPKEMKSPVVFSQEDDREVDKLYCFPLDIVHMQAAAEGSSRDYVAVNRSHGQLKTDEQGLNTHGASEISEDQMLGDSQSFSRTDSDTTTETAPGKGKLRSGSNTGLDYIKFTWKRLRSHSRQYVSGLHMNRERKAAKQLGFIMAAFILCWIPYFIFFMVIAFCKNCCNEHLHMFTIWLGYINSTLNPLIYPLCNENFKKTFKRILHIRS
Chain of human dopamine D2L receptor (P14416 whole entry): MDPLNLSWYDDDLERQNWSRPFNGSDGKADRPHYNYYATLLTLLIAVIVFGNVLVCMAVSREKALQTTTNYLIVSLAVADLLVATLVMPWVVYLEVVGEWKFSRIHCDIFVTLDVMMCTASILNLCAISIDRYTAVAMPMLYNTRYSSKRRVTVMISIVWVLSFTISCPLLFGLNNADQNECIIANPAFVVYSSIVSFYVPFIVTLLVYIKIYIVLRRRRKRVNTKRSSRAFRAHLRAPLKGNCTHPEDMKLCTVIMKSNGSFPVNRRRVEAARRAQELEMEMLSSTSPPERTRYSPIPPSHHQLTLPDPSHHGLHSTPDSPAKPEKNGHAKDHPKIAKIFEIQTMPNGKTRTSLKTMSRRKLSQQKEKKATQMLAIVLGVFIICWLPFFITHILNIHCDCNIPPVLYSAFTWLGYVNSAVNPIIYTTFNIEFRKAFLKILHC

Usually inhibition stands for the drop in the measured response relative to a control, in per cent. Turning to `C/C=C(/Cn1c2c(c3cc(C)ccc31)CN(C)CC2)c1ccncc1` [Compound No. 361, (E)-2,8-dimethyl-5-(2-(pyridin-4-yl)but-2-enyl)-2,3,4,5-tetrahydro-1H-pyrido[4,3-b]indole], the inhibition at 1 µM came out at 51% in assay [1] (setting [2]) and 96% on histamine receptor H1.

As to `C/C(=C/n1c2c(c3cc(Cl)ccc31)CN(C)CC2)c1ccc(F)cc1` [compound 397, (Z)-8-chloro-5-(2-(4-fluorophenyl)prop-1-enyl)-2-methyl-2,3,4,5-tetrahydro-1H-pyrido[4,3-b]indole], the results for the inhibition at 1 µM (in assay [1] (setting [2]); on histamine receptor H1) were 80% and 89%, respectively.

`C/C(=C\n1c2c(c3cc(Cl)ccc31)CN(C)CC2)c1nccs1` [Compound 370, (E)-2-(1-(8-chloro-2-methyl-3,4-dihydro-1H-pyrido[4,3-b]indol-5(2H)-yl)prop-1-en-2-yl)thiazole]: the inhibition at 1 µM in assay [1] (setting [2]) turned out to be 63%; on histamine receptor H1 it was 72%.

Turning to `Cc1ccc2c(c1)c1c(n2CC(C)(O)c2ccncc2)CC(C)N(C)C1` (stereo not shown) [Compound 345, 2-(pyridin-4-yl)-1-(2,3,8-trimethyl-3,4-dihydro-1H-pyrido[4,3-b]indol-5(2H)-yl)propan-2-ol], the inhibition at 1 µM in assay [1] (setting [3]) was found to be 15%; on histamine receptor H1 it was 56%.

Regarding `CC(=O)N(C)c1ccc2c(c1)c1c(n2/C=C(\C)c2ccc(F)cc2)CCN(C)C1` [compound 443, (E)-N-(5-(2-(4-fluorophenyl)prop-1-enyl)-2-methyl-2,3,4,5-tetrahydro-1H-pyrido[4,3-b]indol-8-yl)-N-methylacetamide], the inhibition at 1 µM in assay [1] (setting [2]) is 92%; at histamine receptor H1 it was -5%.

With `C/C(=C\n1c2c(c3cc(C)ccc31)CN(C)CC2)c1cc(F)c(O)c(F)c1` [compound 452, (E)-4-(1-(2,8-dimethyl-3,4-dihydro-1H-pyrido[4,3-b]indol-5(2H)-yl)prop-1-en-2-yl)-2,6-difluorophenol], the inhibition at 1 µM in assay [1] (setting [2]) came to 71%; at histamine receptor H1 it was 18%.

Regarding `CNC(=O)c1ccc(/C(F)=C/n2c3c(c4cc(C)ccc42)CN(C)CC3)cc1F` [compound 424, (Z)-4-(2-(2,8-dimethyl-3,4-dihydro-1H-pyrido[4,3-b]indol-5(2H)-yl)-1-fluorovinyl)-2-fluoro-N-methylbenzamide], the inhibition at 1 µM was 20% in assay [1] (setting [2]) and 43% at histamine receptor H1.

Turning to `Cc1ccc2c(c1)c1c(n2C=C(c2ccccc2)c2ccccc2)CCN(C)C1` [compound 409, 5-(2,2-diphenylvinyl)-2,8-dimethyl-2,3,4,5-tetrahydro-1H-pyrido[4,3-b]indole], the inhibition at 1 µM in assay [1] (setting [2]) was found to be 54%; on histamine receptor H1 it was 18%.

For the compound `C/C(=C/n1c2c(c3cc(Cl)ccc31)CN(C)CC2)c1ccncc1C` [compound 417, (Z)-8-chloro-2-methyl-5-(2-(3-methylpyridin-4-yl)prop-1-enyl)-2,3,4,5-tetrahydro-1H-pyrido[4,3-b]indole], the inhibition at 1 µM in assay [1] (setting [2]) was found to be 87%; on histamine receptor H1 it was 48%.

As to `Cc1ccc2c(c1)c1c(n2/C=C(\c2ccccc2)c2ccncc2)CCN(C)C1` [compound 455, (E)-2,8-dimethyl-5-(2-phenyl-2-(pyridin-4-yl)vinyl)-2,3,4,5-tetrahydro-1H-pyrido[4,3-b]indole], the values for the inhibition at 1 µM (in assay [1] (setting [2]); at histamine receptor H1) were 56% and 13%, respectively.

Take `CNC(=O)c1ccc(/C(C)=C/n2c3c(c4cc(C)ccc42)CN(C)CC3)cc1` [compound 435]: the inhibition at 1 µM came to 71% in assay [1] (setting [2]) and 11% on histamine receptor H1.

On to `COc1ccc(C#Cn2c3c(c4cc(C)ccc42)CN(C)CC3)cn1` [Compound No. 494, 5-((6-methoxypyridin-3-yl)ethynyl)-2,8-dimethyl-2,3,4,5-tetrahydro-1H-pyrido[4,3-b]indole], for which the inhibition at 1 µM in assay [1] (setting [2]) came to 13%; on histamine receptor H1, 2%.

Consider `COc1ccc(/C(C)=C/n2c3c(c4cc(Cl)ccc42)CN(C)CC3)cn1` [compound 454, (E)-8-chloro-5-(2-(6-methoxypyridin-3-yl)prop-1-enyl)-2-methyl-2,3,4,5-tetrahydro-1H-pyrido[4,3-b]indole], for which the inhibition at 1 µM in assay [1] (setting [2]) was found to be 80%; on histamine receptor H1, 21%.

Take `C/C(=C\n1c2c(c3cc(C)ccc31)CN(C)CC2)C1CCCCC1` [Compound 320, (E)-5-(2-cyclohexylprop-1-enyl)-2,8-dimethyl-2,3,4,5-tetrahydro-1H-pyrido[4,3-b]indole]: the inhibition at 1 µM in assay [1] (setting [3]) came out at 61%; on histamine receptor H1, 65%.

Regarding `CN1CCc2c(c3cc(Cl)ccc3n2CC(O)(c2ccccc2)c2ccccc2)C1` [Compound No. 466, 2-(8-chloro-2-methyl-3,4-dihydro-1H-pyrido[4,3-b]indol-5(2H)-yl)-1,1-diphenylethanol], the inhibition at 1 µM worked out at 54% in assay [1] (setting [2]) and 10% on histamine receptor H1.

`Cc1ccc2c(c1)c1c(n2CC(O)(c2ccccc2)c2ccccc2)CCN(C)C1` [Compound No. 465, 2-(2,8-dimethyl-3,4-dihydro-1H-pyrido[4,3-b]indol-5(2H)-yl)-1,1-diphenylethanol]: the inhibition at 1 µM in assay [1] (setting [2]) was 21%; at histamine receptor H1 it was -14%.

Take `COc1ccc(/C(F)=C(/c2ccc(OC)nc2)n2c3c(c4cc(C)ccc42)CN(C)CC3)cn1` [compound 420, (E)-5-(2-fluoro-1,2-bis(6-methoxypyridin-3-yl)vinyl)-2,8-dimethyl-2,3,4,5-tetrahydro-1H-pyrido[4,3-b]indole]: the values for the inhibition at 1 µM (in assay [1] (setting [2]); at histamine receptor H1) were 29% and 13%, respectively.

As for `CC(C)=C(Cn1c2c(c3cc(Cl)ccc31)CN(C)CC2)c1ccncc1` [Compound No. 357, 8-chloro-2-methyl-5-(3-methyl-2-(pyridin-4-yl)but-2-enyl)-2,3,4,5-tetrahydro-1H-pyrido[4,3-b]indole], the results for the inhibition at 1 µM (in assay [1] (setting [2]); on histamine receptor H1) were 14% and 61%, respectively.

For the compound `C/C=C(/Cn1c2c(c3cc(Cl)ccc31)CN(C)CC2)c1ccncc1` [Compound No. 362, (E)-8-chloro-2-methyl-5-(2-(pyridin-4-yl)but-2-enyl)-2,3,4,5-tetrahydro-1H-pyrido[4,3-b]indole], the figures for the inhibition at 1 µM (in assay [1] (setting [2]); at histamine receptor H1) were 79% and 98%, respectively.

As to `CC(O)(Cn1c2c(c3cc(Cl)ccc31)CN(CCCC(=O)c1ccc(F)cc1)CC2)c1ccncc1` (stereo not shown) [Compound No. 464, 4-(8-chloro-5-(2-hydroxy-2-(pyridin-4-yl)propyl)-3,4-dihydro-1H-pyrido[4,3-b]indol-2(5H)-yl)-1-(4-fluorophenyl)butan-1-one], the inhibition at 1 µM in assay [1] (setting [2]) was found to be 93%; on histamine receptor H1, 66%.

In the case of `C/C=C(\Cn1c2c(c3cc(Cl)ccc31)CN(C)CC2)c1ccncc1` [Compound No. 360, (Z)-8-chloro-2-methyl-5-(2-(pyridin-4-yl)but-2-enyl)-2,3,4,5-tetrahydro-1H-pyrido[4,3-b]indole], the results for the inhibition at 1 µM (in assay [1] (setting [2]); on histamine receptor H1) were 36% and 47%, respectively.

With `Cc1ccc2c(c1)c1c(n2C#Cc2ccccc2)CCN(C)C1` [Compound No. 490, 2,8-dimethyl-5-(phenylethynyl)-2,3,4,5-tetrahydro-1H-pyrido[4,3-b]indole], the inhibition at 1 µM was 74% in assay [1] (setting [2]) and 18% at histamine receptor H1.

On to `Cc1ccc2c(c1)c1c(n2C#Cc2cccs2)CCN(C)C1` [Compound No. 493, 2,8-dimethyl-5-(thiophen-2-ylethynyl)-2,3,4,5-tetrahydro-1H-pyrido[4,3-b]indole], for which the inhibition at 1 µM in assay [1] (setting [2]) was determined as 56%; at histamine receptor H1, 69%.

Values taken from patent publication US8906925B2, “Pyrido[4,3-B]indoles containing rigid moieties” (Medivation Technologies, Inc., priority 2008, dated 2014).
